As a reminder, the logP is a log measure of how a compound divides between an organic and an aqueous phase. High values mean a more lipophilic compound, low ones a more hydrophilic compound.

The series in a line: method code SF-AS, from DOI: 10.1016/0048-3575(91)90045-n.
`CCc1cc(Br)ccc1NC(=O)NC(=O)c1c(F)cccc1F` yielded a logP of 2.27. With `O=C(NC(=O)c1c(F)cccc1F)Nc1ccc(Cl)cc1` the figure was 2.12. To `O=C(NC(=O)c1c(F)cccc1F)Nc1ccccc1C(F)(F)F` belongs 1.17; to `O=C(NC(=O)c1c(F)cccc1F)Nc1cc(C(F)(F)F)c(Br)c(C(F)(F)F)c1`, 4.56. `O=C(NC(=O)c1c(F)cccc1F)Nc1ccc(F)c(C(F)(F)F)c1` returned a logP of 2.64. To `O=C(NC(=O)c1c(F)cccc1F)Nc1cc(Cl)c(Cl)c(Cl)c1Cl` belongs 2.9; to `CCc1cc(NC(=O)NC(=O)c2c(F)cccc2F)ccc1Br`, 3.33. Molecule `CCCCc1ccc(NC(=O)NC(=O)c2c(F)cccc2F)cc1Br` had a logP of 4.23. To `O=C(NC(=O)c1c(F)cccc1F)Nc1ccc(Oc2ncc(C(F)(F)F)cc2Cl)c(Cl)c1Cl` belongs 4.46; to `Cc1ccc(NC(=O)NC(=O)c2c(F)cccc2F)cc1Cl`, 2.69. To `O=C(NC(=O)c1c(F)cccc1F)Nc1cc(C(F)(F)F)c(F)cc1F` belongs 2.34; to `CCCCc1ccc(NC(=O)NC(=O)c2c(F)cccc2F)cc1`, 3.3; to `O=C(NC(=O)c1c(F)cccc1F)Nc1cc(OC(F)(F)F)c(Br)cc1F`, 3.24. In turn, `O=C(NC(=O)c1c(F)cccc1F)Nc1c(F)ccc(C(F)(F)F)c1Br` yielded a logP of 2.22. Regarding `CCCCc1ccc(NC(=O)NC(=O)c2c(F)cccc2F)cc1C`, the logP came to 3.64.

In the case of `Cc1cc(NC(=O)NC(=O)c2c(F)cccc2F)cc(C)c1C`, the log partition coefficient (logP) is 2.5. To `O=C(NC(=O)c1c(F)cccc1F)Nc1cccc(Cl)c1Cl` belongs 2.09; to `O=C(NC(=O)c1c(F)cccc1F)Nc1cc([N+](=O)[O-])c(Br)cc1F`, 2.11.

Molecule `O=C(NC(=O)c1c(F)cccc1F)Nc1ccc(Br)c(OC(F)(F)F)c1` had a logP of 3.48. The molecule `O=C(NC(=O)c1c(F)cccc1F)Nc1cc(Cl)cc(C(F)(F)F)c1Br` returned a logP of 3.26. In the case of `O=C(NC(=O)c1c(F)cccc1F)Nc1ccc(Cl)c(Cl)c1`, the logP worked out at 3. Molecule `O=C(NC(=O)c1c(F)cccc1F)Nc1cc(C(F)(F)F)cc(C(F)(F)F)c1Br` returned a logP of 3.51.

In the case of `O=C(NC(=O)c1c(F)cccc1F)Nc1cc(Cl)c(F)c(Cl)c1F`, the logP came out at 2.9.

The molecule `O=C(NC(=O)c1c(F)cccc1F)Nc1cc(Br)cc(C(F)(F)F)c1Cl` yielded a logP of 3.41. With `Cc1c(Br)ccc(NC(=O)NC(=O)c2c(F)cccc2F)c1Cl` the figure was 2.73; with `Cc1c(NC(=O)NC(=O)c2c(F)cccc2F)ccc(Br)c1Cl`, 2.69. With `O=C(NC(=O)c1c(F)cccc1F)Nc1cc(Cl)cc(C(F)(F)F)c1F` the figure was 3.15; with `O=C(NC(=O)c1c(F)cccc1F)Nc1cc(Cl)cc(Cl)c1`, 3.17.

As for `O=C(NC(=O)c1c(F)cccc1F)Nc1cc(Cl)cc(Cl)c1Br`, the logP was 3.04. With `Cc1cccc(NC(=O)NC(=O)c2c(F)cccc2F)c1C`, the log partition coefficient (logP) came out at 1.35. To `Cc1cc(NC(=O)NC(=O)c2c(F)cccc2F)ccc1Br` belongs 2.8; to `CCCCc1ccc(NC(=O)NC(=O)c2c(F)cccc2F)c(Br)c1`, 3.39. `O=C(NC(=O)c1c(F)cccc1F)Nc1ccc(Cl)cc1Cl`: the logP came out at 2.18. With `O=C(NC(=O)c1c(F)cccc1F)Nc1ccc(Br)cc1` the figure was 2.29. To `O=C(NC(=O)c1c(F)cccc1F)Nc1cc(C(F)(F)F)cc(Cl)c1Cl` belongs 3.27; to `O=C(NC(=O)c1c(F)cccc1F)Nc1ccccc1Br`, 1.34; to `O=C(NC(=O)c1c(F)cccc1F)Nc1c(F)cc(Br)cc1F`, 1.73. To `O=C(NC(=O)c1c(F)cccc1F)Nc1cccc(Cl)c1F` belongs 1.83; to `CCCCc1ccc(NC(=O)NC(=O)c2c(F)cccc2F)c([N+](=O)[O-])c1`, 3.1; to `O=C(NC(=O)c1c(F)cccc1F)Nc1cc(Cl)c(Oc2ncc(C(F)(F)F)cc2Cl)c(Cl)c1`, 5.54. In the case of `O=C(NC(=O)c1c(F)cccc1F)Nc1cc(OC(F)(F)F)c(F)cc1F`, the logP came to 2.48.

Molecule `Cc1ccc(C)c(NC(=O)NC(=O)c2c(F)cccc2F)c1` yielded a logP of 1.47.

As for `Cc1cc(C)cc(NC(=O)NC(=O)c2c(F)cccc2F)c1`, the logP was determined as 2.17. As to `O=C(NC(=O)c1c(F)cccc1F)Nc1ccccc1`, the logP is 1.16. `O=C(NC(=O)c1c(F)cccc1F)Nc1c(F)cc(Br)c(C(F)(F)F)c1Br` returned a logP of 3.07.

The molecule `O=C(NC(=O)c1c(F)cccc1F)Nc1ccc(Cl)c(Cl)c1Cl` gave a log partition coefficient (logP) of 2.88. To `O=C(NC(=O)c1c(F)cccc1F)Nc1cc(Cl)cc(C(F)(F)F)c1Cl` belongs 3.27; to `C#CCOc1cc(NC(=O)NC(=O)c2c(F)cccc2F)c(F)cc1Cl`, 2.2; to `Cc1cc(NC(=O)NC(=O)c2c(F)cccc2F)cc(C)c1Br`, 3.28. Molecule `O=C(NC(=O)c1c(F)cccc1F)Nc1cccc(C(F)(F)F)c1` registered a logP of 2.56. In turn, `Cc1ccc(NC(=O)NC(=O)c2c(F)cccc2F)cc1C` showed a logP of 2.1. With `O=C(NC(=O)c1c(F)cccc1F)Nc1cc(C(F)(F)F)c(Cl)cc1Cl` the figure was 3.24. In turn, `CSc1cc(Br)ccc1NC(=O)NC(=O)c1c(F)cccc1F` returned a logP of 2.18. Regarding `O=C(NC(=O)c1c(F)cccc1F)Nc1ccc(Cl)cc1F`, the logP amounted to 1.91. To `CC(C)Oc1cc(NC(=O)NC(=O)c2c(F)cccc2F)c(F)cc1Cl` belongs 2.84. With `Cc1cc(Oc2ncc(C(F)(F)F)cc2Cl)ccc1NC(=O)NC(=O)c1c(F)cccc1F` the figure was 3.23. To `COc1cc(Br)ccc1NC(=O)NC(=O)c1c(F)cccc1F` belongs 2.02; to `CCCCc1ccc(NC(=O)NC(=O)c2c(F)cccc2F)c(C)c1`, 3.1; to `O=C(NC(=O)c1c(F)cccc1F)Nc1ccc(Cl)c(C(F)(F)F)c1`, 3.33.

Take `Cc1ccc(NC(=O)NC(=O)c2c(F)cccc2F)c(C)c1`: the logP came to 1.46. With `Cc1cc(Oc2ncc(C(F)(F)F)cc2Cl)c(C)cc1NC(=O)NC(=O)c1c(F)cccc1F` the figure was 3.84. For the molecule `O=C(NC(=O)c1c(F)cccc1F)Nc1ccc(Br)c(Cl)c1F`, the logP is 2.86.

For `O=C(NC(=O)c1c(F)cccc1F)Nc1cc(Cl)ccc1Cl`, the log partition coefficient (logP) was found to be 2.19. With `O=C(NC(=O)c1c(F)cccc1F)Nc1cc(C(F)(F)F)c(Cl)cc1F` the figure was 3.02; with `O=C(NC(=O)c1c(F)cccc1F)Nc1ccc(I)cc1`, 2.46; with `Cc1cc(Br)cc(C)c1NC(=O)NC(=O)c1c(F)cccc1F`, 2.12. To `O=C(NC(=O)c1c(F)cccc1F)Nc1ccc(Cl)cc1C(F)(F)F` belongs 1.98; to `CCc1ccc(NC(=O)NC(=O)c2c(F)cccc2F)cc1`, 2.2; to `O=C(NC(=O)c1c(F)cccc1F)Nc1ccc(F)cc1`, 1.47. `O=C(NC(=O)c1c(F)cccc1F)Nc1cc(Cl)c(Cl)c(Cl)c1` showed a logP of 3.76. To `Cc1cc(Br)ccc1NC(=O)NC(=O)c1c(F)cccc1F` belongs 2.03; to `O=C(NC(=O)c1c(F)cccc1F)Nc1ccc(Oc2ncc(C(F)(F)F)cc2Cl)c(Cl)c1`, 4.52. With `Cc1cc(NC(=O)NC(=O)c2c(F)cccc2F)ccc1Cl` the figure was 2.57. On to `O=C(NC(=O)c1c(F)cccc1F)Nc1cc(F)cc(C(F)(F)F)c1Cl`, for which the logP worked out at 2.86.

Consider `O=C(NC(=O)c1c(F)cccc1F)Nc1cc(C(F)(F)F)c(Br)cc1F`, for which the logP amounted to 3.17.

Molecule `CC(C)COc1cc(NC(=O)NC(=O)c2c(F)cccc2F)c(F)cc1Cl` displayed a logP of 3.79. To `C=CCOc1cc(NC(=O)NC(=O)c2c(F)cccc2F)c(F)cc1Cl` belongs 2.76; to `O=C(NC(=O)c1c(F)cccc1F)Nc1ccccc1F`, 1.03.

`O=C(NC(=O)c1c(F)cccc1F)Nc1cc(C(F)(F)F)cc(C(F)(F)F)c1` gave a logP of 3.72.

`O=C(NC(=O)c1c(F)cccc1F)Nc1cc(C(F)(F)F)ccc1F`: the logP is 2.24. With `Cc1c(Cl)cccc1NC(=O)NC(=O)c1c(F)cccc1F` the figure was 1.82.
